Results on 14 compounds are retold here after patent US20250092036A1, “COMPOUNDS AND COMPOSITIONS FOR MODULATING THE ACTIVITY OF ERK” (Novartis AG, priority 2023, published 2025).

Experiment [1] addresses T1, nanobit-large-bit-ERK2 and nanobit-small-bit-PEA15 in WM793 cells (Homo sapiens, UniProt P28482).
T1 construct: expressed in transfected cells
As to the kind of experiment: NanoBiT assay. It is filed as cell-based. To be noted: WM793 nanobit stable cell line, overnight incubation; read-out: NanoBiT qualified absolute AC50. As for the experimental part:
(§1) Cancer cell media was prepared by adding 500 mL of RPMI (ThermoFisher cat ##22400-089) and 10% Fetal Bovine Serum (Gibco) for WM793 cells (ATCC Cat #CRL-2806, RRID: CVCL 8787) and F12K (Thermo Fisher cat #21127-022, 500 mL; or 21127-030, 10×500 mL)+10% FBS for PC3 (ATCC CRL-1435) cells. The entire media with supplements was filter sterilized through a 0.4 μm bottle top filter system. Cancer cell lines were detached from traditional cell culture flasks by washing three times with 1×PBS and adding an appropriate amount of 0.25% TrypLE™ Express Enzyme (1×), no phenol red (ThermoFisher cat #12604013) to create a thin layer over the cells. Trypsin was neutralized with media containing serum and proceeded to count the cells.
A nanobit stable cell line was generated using WM793 cells with nanobit-large-bit-ERK2 and nanobit-small-bit-PEA15. […] In a biological safety cabinet, cells were seeded using a sterilized small stainless steel tipped cassette on a Multi-drop Combi. Between different cell lines, the tubing of the cassette was flushed with 1× sterile PBS for 10 s. Alternatively, cells can be seeded using a Multi-flow located within a Hepa filtered robotics room using either a sterilized small sapphire jewel tipped cassette and the peristatic pump, or the attached syringe pump, depending on volume of plates per cell line needed. The plates were placed in an incubator set at 37° C., with 5% CO2 and 95% relative humidity. A 10-point, 3-fold serial dilution of compounds was prepared in 100% DMSO on a liquid handling robot with a 10 mM top concentration. 90 nl/well was dispensed in three assay plates/1 compound source plate, with the highest concentration at 30 μM. After addition of compound was complete, the plates were placed into an incubator at 37° C., with 5% CO2 and 95% relative humidity for overnight. Luminescence was captured on a plate luminometer such as an Envision or View Lux to measure Day 0 time point both select cell lines. LUM plus, gain 3500, 0.1 s and focal height 12.5 [mm] on PheraStar reader. The raw data was extracted from the instrument and normalized all fields containing test compounds to the average of all wells containing DMSO alone as neutral control. From this value, the percent growth inhibition was calculated for each compound. Dose response curves and inhibitory IC50s were generated by graphing the normalized data values against the compound concentration using either a program such as GraphPad™ or Excel Fit.

In experiment [2] the target is T2, ERK2[2-360(p-T185/p-Y187)]-Avi (Homo sapiens, UniProt P28482).
T2 construct: 400 pM ERK2[2-360(p-T185/p-Y187)]-Avi was added to the plate
T2 sequence (P28482 2-360 limits assumed): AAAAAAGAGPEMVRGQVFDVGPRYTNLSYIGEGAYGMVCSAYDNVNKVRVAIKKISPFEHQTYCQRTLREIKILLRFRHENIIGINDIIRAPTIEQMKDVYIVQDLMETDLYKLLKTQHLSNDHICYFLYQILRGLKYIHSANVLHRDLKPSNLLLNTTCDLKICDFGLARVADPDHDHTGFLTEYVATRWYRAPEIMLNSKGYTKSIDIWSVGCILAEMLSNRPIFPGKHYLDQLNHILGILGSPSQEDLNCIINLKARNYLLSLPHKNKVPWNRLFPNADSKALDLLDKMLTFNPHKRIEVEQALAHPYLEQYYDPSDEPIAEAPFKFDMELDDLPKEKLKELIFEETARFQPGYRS
As to the kind of experiment: Biochemical assay (HTRF competition assay). The class given is binding. To be noted: HTRF competition with Example 15 probe, overnight at RT; read-out: Biochemical qualified AC50. As for the experimental part:
The competition assays were performed at RT in a 384-well white polystyrene, flat bottom plate (Greiner #784075) using a final reaction volume of 15 μL and the following assay buffer conditions: 50 mM MOPS, pH 7.2, 10 mM MgCl2, 0.5 mM TCEP, 0.01% Triton-X-100. 75 nL of a 10 mM compound solution in DMSO or 100% DMSO (12 point titration, final concentration: 50 μM-300 pM; final DMSO: 0.5%) was added using an acoustic liquid handler (Echo, Beckman Coulter) to wells containing 7.5 μL of 1-(6-((R)-3-(1-(5-chloro-1-((tetrahydro-2H-pyran-4-yl)methyl)-1H-indole-3-carbonyl)-4-(4-fluorophenyl)piperidine-4-carboxamido)pyrrolidin-1-yl)-6-oxohexyl)-3,3-dimethyl-5-sulfo-2-((1E,3E)-5-((E)-1,3,3-trimethyl-5-sulfoindolin-2-ylidene)penta-1,3-dien-1-yl)-3H-indol-1-ium (Example 15); 7.5 μL 400 pM SA-Tb (Cisbio, 610SATLB) and 400 pM ERK2[2-360(p-T185/p-Y187)]-Avi was added to the plate and incubated overnight at RT. HTRF signal was measured using a microplate reader (PheraStar, BMG Labtech) with excitation and emission wavelengths of […], respectively. The inhibitor dose-response curves were analyzed from the HTRF ratio signal using normalized IC50 regression curve fitting with control-based normalization.

Another experiment concerns WM793 cells. In words: Cell proliferation assay (CellTiter-Glo). The class given is cell-based. Conditions: 3 d, read-out: Cell proliferation qualified AC50. As for the experimental part: as §1
After counting the cells, the concentration of the cell solution was adjusted to seed a total of 750 cells per well in 50 μL of complete media into 384-well tissue culture treated plates. In a biological safety cabinet, cells were seeded using a sterilized small stainless steel tipped cassette on a Multi-drop Combi. Between different cell lines, the tubing of the cassette was flushed with 1× sterile PBS for 10 seconds. Alternatively, cells can be seeded using a Multi-flow located within a Hepa filtered robotics room using either a sterilized small sapphire jewel tipped cassette and the peristatic pump, or the attached syringe pump, depending on volume of plates per cell line needed. The plates were placed in an incubator set at 37° C., with 5% CO2 and 95% relative humidity. A 10-point, 3-fold serial dilutions of compounds in 100% DMSO was prepared on a liquid handling robot with a 10 mM top concentration. 100 nL/well in three assay plates/1 compound was dispensed to source plate, with the highest concentration at 20 μM. After addition of compound was complete, plates were placed into an incubator at 37° C., with 5% CO2 and 95% relative humidity for 3 d. An adequate volume of CellTiter-Glo® (Promega #G7571) detection reagent was pre-warmed to RT or in a 37° C. H2O bath. 25 μL of the reagent was added to each well using either a Multi-drop Combi or MultiFlo and incubate at RT for at least 15 min. Luminesce was captured on a plate luminometer such as an Envision or View Lux to measure Day 0 time point both select cell lines. LUM plus, gain 3500, 0.1 s and focal height 12.5 mm on PheraStar reader. At Day 3, an adequate volume of CellTiter-Glo® detection reagent was pre-warmed at RT or in a 37° C. H2O bath. A total of 25 μL of the reagent was added to each well using either a Multi-drop Combi or MultiFlo and incubate at RT for at least 15 min. Luminesce was captured on a plate luminometer such as an Envision or View Lux to measure Day 3 time point both select cell lines. LUM plus, gain 3500, 0.1 s and focal height 12.5 mm on PheraStar reader. Raw data was extracted from the instrument and all fields containing test compounds were normalized to the average of all wells containing DMSO alone from Day 3 as neutral control and Day 0 starting numbers. From this value, percent growth inhibition of each compound was calculated. Dose response curves and growth inhibitory IC50s were generated by graphing the normalized data values against the compound concentration using a program such as GraphPad™ or Excel Fit.

Where two headings read alike, the source gives them in different places.

T1 sequence (P28482 whole entry): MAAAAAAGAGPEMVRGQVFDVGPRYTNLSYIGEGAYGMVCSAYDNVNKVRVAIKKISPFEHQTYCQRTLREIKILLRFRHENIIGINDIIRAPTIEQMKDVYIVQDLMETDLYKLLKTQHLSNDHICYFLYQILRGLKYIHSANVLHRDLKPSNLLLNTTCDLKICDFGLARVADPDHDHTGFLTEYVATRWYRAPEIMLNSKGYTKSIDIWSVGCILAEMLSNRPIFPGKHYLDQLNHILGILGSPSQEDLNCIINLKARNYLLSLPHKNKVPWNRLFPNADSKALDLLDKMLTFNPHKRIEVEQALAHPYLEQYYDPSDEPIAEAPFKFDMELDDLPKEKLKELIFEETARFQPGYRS

Regarding `CO[C@H]1CC[C@H](Cc2c(C)n(C(=O)N3CCC(C(=O)N[C@H]4CC[C@H](C(=O)O)CC4)(c4ccc(F)cc4)CC3)c3cc(F)ccc23)CC1` [Example 1c], the AC50 was found to be 390 nM in experiment [1]; 1.3 nM in experiment [2]; 940 nM with WM793 cells (Homo sapiens, WM793, 72 h).

Consider `CCc1c(C[C@H]2CC[C@H](OC3CCOCC3)CC2)c2ccc(F)cc2n1C(=O)N1CCC(C(=O)N[C@H]2C[C@H](C(=O)O)C[C@@H]2C)(c2ccc(F)cc2)CC1` [Example 1d], for which the AC50 is 300 nM in experiment [1]; under 0.28 nM in experiment [2]; 110 nM in the experiment with WM793 cells (Homo sapiens, WM793, 72 h).

Take `CCc1c(C[C@H]2CC[C@H](OC3CCOCC3)CC2)c2ccc(F)cc2n1C(=O)N1CCC(C(=O)N[C@H]2CC[C@H](C(=O)O)CC2(C)C)(c2ccc(F)cc2)CC1` [Example 1e]: the AC50 is 19 nM in experiment [1]; under 0.28 nM in experiment [2]; 70 nM with WM793 cells (Homo sapiens, WM793, 72 h).

For `COCCc1c(C[C@H]2CC[C@H](OC(C)C)CC2)c2cc(F)c(F)cc2n1C(=O)N1CCC(C(=O)N[C@H]2CC[C@H](C(=O)O)C[C@@H]2C)(c2ccc(F)cc2)CC1` [Example 1f], the AC50 is 140 nM in experiment [1]; under 0.28 nM in experiment [2]; 52 nM in the experiment with WM793 cells (Homo sapiens, WM793, 72 h).

Consider `COCCc1c(C[C@H]2CC[C@H](OC(C)C)CC2)c2ccc(Cl)cc2n1C(=O)N1CCC(C(=O)N[C@H]2CC[C@H](C(=O)O)C[C@@H]2C)(c2ccc(F)cc2)CC1` [Example 1g], for which the AC50 in experiment [1] was 210 nM; in experiment [2], under 0.28 nM; in the experiment on WM793 cells (Homo sapiens, WM793, 72 h) it was 93 nM.

For `CCc1c(CC2CCOCC2)c2ccc(F)cc2n1C(=O)N1CCC(C(=O)N[C@H]2CC[C@H](C(=O)O)C[C@@H]2C)(c2ccc(F)cc2)CC1` [Example 1h], the AC50 in experiment [1] is 55 nM; in experiment [2], under 0.28 nM; with WM793 cells (Homo sapiens, WM793, 72 h), 16 nM.

In the case of `Cc1c(CC2CCC(OC(C)C)CO2)c2ccc(F)cc2n1C(=O)N1CC[C@@](C(=O)N[C@H]2CC[C@H](C(=O)O)C[C@@H]2C)(c2ccc(F)cc2)C[C@@H]1C` (stereo partly drawn) [Example 1i], the AC50 in experiment [1] was 31 nM; in experiment [2], under 0.28 nM; in the experiment with WM793 cells (Homo sapiens, WM793, 72 h), 15 nM.

As for `CCc1c(C[C@H]2CC[C@H](OC3CCOCC3)CC2)c2ccc(F)cc2n1C(=O)N1CC[C@@](C(=O)N[C@H]2CC[C@H](C(=O)O)C[C@@H]2C)(c2ccccc2)C[C@@H]1C` [Example 1j], the AC50 is 30 nM in experiment [1]; under 0.28 nM in experiment [2]; 29 nM in the experiment on WM793 cells (Homo sapiens, WM793, 72 h).

In the case of `CCc1c(C[C@H]2CC[C@H](OC3CCOCC3)CC2)c2ccc(F)cc2n1C(=O)N1CCC(C(=O)N[C@H]2CC[C@H](C(=O)O)C[C@@H]2C)(c2ccc(Cl)nc2)CC1` [Example 1k], the AC50 was determined as 250 nM in experiment [1]; 0.48 nM in experiment [2]; 33 nM with WM793 cells (Homo sapiens, WM793, 72 h).

For the compound `Cc1c(C[C@H]2CC[C@H](OC(C)C)CC2)c2ccc(F)cc2n1C(=O)N1CC[C@@](C(=O)N[C@H]2CC[C@H](C(=O)O)C[C@@H]2C)(c2ccc(F)cc2)C[C@@H]1C` [Example 1l], the AC50 in experiment [1] is 270 nM; in experiment [2], under 0.28 nM; in the experiment on WM793 cells (Homo sapiens, WM793, 72 h), 18 nM.

For `CCc1c(C[C@H]2CC[C@H](OC(C)C)CC2)c2ccc(F)cc2n1C(=O)N1CCC(C(=O)N[C@H]2CC[C@H](C(=O)O)C[C@@H]2C)(c2ccc(F)cc2)CC1` [Example 2, (1S,3S,4S)-4-(1-(2-ethyl-6-fluoro-3-(((1r,4S)-4-isopropoxycyclohexyl)methyl)-1H-indole-1-carbonyl)-4-(4-fluorophenyl)piperidine-4-carboxamido)-3-methylcyclohexane-1-carboxylic acid], the AC50 in experiment [1] was 190 nM; in experiment [2], under 0.28 nM; in the experiment with WM793 cells, 110 nM.

As to `COCCc1c(C[C@H]2CC[C@H](OC(C)C)CC2)c2ccc(F)cc2n1C(=O)N1CCC(C(=O)N[C@H]2CC[C@H](C(=O)O)C[C@@H]2C)(c2ccc(F)cc2)CC1` [Example 3, (1S,3S,4S)-4-(1-(6-fluoro-3-(((1r,4S)-4-isopropoxycyclohexyl)methyl)-2-(2-methoxyethyl)-1H-indole-1-carbonyl)-4-(4-fluorophenyl)piperidine-4-carboxamido)-3-methylcyclohexane-1-carboxylic acid], the AC50 amounted to 46 nM in experiment [1]; 0.5 nM in experiment [2]; 60 nM with WM793 cells (Homo sapiens, WM793, 72 h).

Take `C[C@H]1C[C@@H](C(=O)O)CC[C@@H]1NC(=O)[C@@]1(c2ccc(F)cc2)CCN(C(=O)N2CCc3ccc(F)cc32)[C@@H](C)C1` [Example 4b]: the AC50 turned out to be 260 nM in experiment [1]; 0.32 nM in experiment [2]; 220 nM in the experiment with WM793 cells (Homo sapiens, WM793, 72 h).

As to `CCc1c(C[C@H]2CC[C@H](OC3CCOCC3)CC2)c2ccc(F)cc2n1C(=O)N1CC[C@@](C(=O)N[C@H]2CC[C@H](C(=O)O)C[C@@H]2C)(c2ccc(F)cc2)C[C@@H]1C` [Example 6, (1S,3S,4S)-4-((2S,4S)-1-(2-ethyl-6-fluoro-3-(((1r,4S)-4-((tetrahydro-2H-pyran-4-yl)oxy)cyclohexyl)methyl)-1H-indole-1-carbonyl)-4-(4-fluorophenyl)-2-methylpiperidine-4-carboxamido)-3-methylcyclohexane-1-carboxylic acid], the AC50 in experiment [1] came to 72 nM; in experiment [2], 0.98 nM; in the experiment on WM793 cells, 23 nM.
